Measured values reported in paper PMC12491715 (Acta Pharmaceutica Sinica. B, 2025).

Legend:
[1] = biological target: T1, hBChE (Homo sapiens, UniProt P06276); assay: ChE IC50 determination, method of Ellman, hBChE; format: biochemical
Experimental: (§1) The inhibitory potencies of the compounds against the ChEs were determined using the method of Ellman following the procedure described previously. Briefly, compound stock solutions in DMSO were incubated with Ellman’s reagent and ChEs (final concentrations: 370 μmol/L Ellman’s reagent, approximately 1 nmol/L or 50 pmol/L hBChE or hAChE, respectively) in 0.1 mol/L sodium phosphate pH 8.0 for 5 min at 20 °C. For time-dependency measurements, the pre-incubation time was varied (1, 5, 15, 30 or 60 min). The reactions were started by the addition of the substrate (final concentration, 500 μmol/L butyrylthiocholine iodide or acetylthiocholine iodide for hBChE and hAChE, respectively). The final content of DMSO was always 1%. The increase in absorbance at 412 nm was monitored for 2 min using a 96-well microplate reader (Synergy HT, BioTek Instruments, VT, USA). The initial velocities in the presence (vi) and absence (v0) of the test compounds were calculated. The inhibitory potencies were expressed as the residual activities, according to Eq. (1):(1) RA = vi / v0
(§2) For IC50 determinations, at least seven different concentrations for each compound were used. The IC50 values were obtained by plotting the residual ChE activities against the applied inhibitor concentrations, with the experimental data fitted to a four-parameter logistic function (GraphPad Prism 9.4). Tacrine and donepezil were used as positive controls.

[2] = biological target: hAChE (Homo sapiens, UniProt P22303); assay: ChE IC50 determination, method of Ellman, hAChE; format: biochemical; settings: for remaining activity at 100 µM: residual activity at 100 μmol/L, after 5 min preincubation, read-out: hAChE RA±SD (residual activity)
Sequence of hAChE (P22303 32-614): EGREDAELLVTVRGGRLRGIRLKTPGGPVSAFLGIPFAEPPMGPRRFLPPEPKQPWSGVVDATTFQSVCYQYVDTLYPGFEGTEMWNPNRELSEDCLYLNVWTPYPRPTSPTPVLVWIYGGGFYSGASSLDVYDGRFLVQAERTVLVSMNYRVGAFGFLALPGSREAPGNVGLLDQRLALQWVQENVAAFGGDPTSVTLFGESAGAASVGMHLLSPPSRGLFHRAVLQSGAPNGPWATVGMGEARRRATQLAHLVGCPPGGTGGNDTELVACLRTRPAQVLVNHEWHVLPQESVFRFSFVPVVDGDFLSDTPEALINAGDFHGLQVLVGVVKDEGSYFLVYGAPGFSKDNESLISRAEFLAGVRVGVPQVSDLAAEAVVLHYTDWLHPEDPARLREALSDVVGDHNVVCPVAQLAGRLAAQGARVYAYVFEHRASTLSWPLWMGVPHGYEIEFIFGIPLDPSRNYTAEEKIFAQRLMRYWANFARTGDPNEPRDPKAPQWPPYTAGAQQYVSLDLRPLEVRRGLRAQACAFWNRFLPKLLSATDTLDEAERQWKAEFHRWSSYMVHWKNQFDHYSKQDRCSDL
Experimental: as §1, §2

[3] = test system: α2 adrenoreceptors; design: method as in PMID 1975199, PMID 16389294; settings: α2 adrenergic antagonist; cited from earlier work
[4] = design: method as in PMID 1975199, PMID 16389294; settings: in humans; cited from earlier work
[5] = biological target: T1, hBChE; assay: hBChE binding kinetics: carbamoylation and decarbamoylation, initial velocity measurements; format: biochemical
Experimental: The progress curves for the time courses of product formation for the hydrolysis of butyrylthiocholine iodide were measured on an Agilent Cary 3500 UV–VIS spectrophotometer with Compact Peltier (thermostated at 25 °C) at 412 nm using a 0.6 mL cuvette (optical path–0.5 cm). 30 mmol/L Tris buffer pH 7.0 with 1 mg/mL BSA and 0.02% NaN3 was used and all dilutions were done in glass vessels (note: dilute hBChE solutions rapidly lose activity, presumably due to adsorption to plastic, preventing meaningful decarbamoylation assays. In our hands, under the above conditions only, the diluted and stock solutions of hBChE were stable for at least a month at room temperature.). Total volume in the cuvette was always 500 μL, and enzyme solutions that gave upon dilution v0 = (dA/dt) ≈ 0.5 (for carbamoylation) and ≈ 1 for (for decarbamoylation) were used. For carbamoylation experiments, 0.5–1 μL of enzyme stock, 5 μL of compound solution, and 484 μL of buffer were preincubated for the specified time, then 10 μL of the mixture of 25 mmol/L Ellman’s reagent (DTNB) and 20 mmol/L butyrylthiocholine (large excess to prevent substrate depletion) were added, quickly mixed, and measurement started. […] The data analysis followed the literature[63]^,[98].

[6] = test system: ICR mice icv-injected with Aβ1–42; assay: Morris water maze, mice model with icv-injection of Aβ1–42; format: in vivo; settings: 10 mg/kg, ip; compared with compound 8
Experimental: Mice model with icv-injection of Aβ1–42 The experiments were performed using ICR male mice (8–10 weeks old, weight 18–20 g), which were purchased from Shanghai Bikai Animal Breeding Factory (Shanghai, China). Animals were housed in cages (6 mice per cage) at a constant temperature of 25±2 °C, humidity of 55%±10% and a light/dark (12:12) cycle. The mice had unlimited access to food and water prior to the experiment. Specified conditions for the maintenance of mice were ensured throughout the experiments, including tree bedding (Yizheng Anlimao Biotechnology Co., Ltd., China) and lab feed (Zimao, China). For behavioural tests, mice were selected randomly, each group consisted of 6 mice. The experiments were performed between 9 am and 3 pm.
According to the literature procedure, recombinant human hexafluoroisopropanol-pretreated Aβ1–42 from Merck Millipore (Darmstadt, Germany) was dissolved in 1% DMSO, diluted with saline to the final concentration of 2 mg/mL, and incubated for 72 h to form oligomers. […]
Behavioural assays The Morris water maze was placed in a lighted room at 25 °C, and it was divided into four equal quadrants. […] The time spent searching for the missing platform was recorded by Xeye Aba image processing system (Beijing Zhongshi Dichuang Technology Development Co., Ltd.) and analysed by GraphPad Prism 5.

T1 sequence (P06276 29-602): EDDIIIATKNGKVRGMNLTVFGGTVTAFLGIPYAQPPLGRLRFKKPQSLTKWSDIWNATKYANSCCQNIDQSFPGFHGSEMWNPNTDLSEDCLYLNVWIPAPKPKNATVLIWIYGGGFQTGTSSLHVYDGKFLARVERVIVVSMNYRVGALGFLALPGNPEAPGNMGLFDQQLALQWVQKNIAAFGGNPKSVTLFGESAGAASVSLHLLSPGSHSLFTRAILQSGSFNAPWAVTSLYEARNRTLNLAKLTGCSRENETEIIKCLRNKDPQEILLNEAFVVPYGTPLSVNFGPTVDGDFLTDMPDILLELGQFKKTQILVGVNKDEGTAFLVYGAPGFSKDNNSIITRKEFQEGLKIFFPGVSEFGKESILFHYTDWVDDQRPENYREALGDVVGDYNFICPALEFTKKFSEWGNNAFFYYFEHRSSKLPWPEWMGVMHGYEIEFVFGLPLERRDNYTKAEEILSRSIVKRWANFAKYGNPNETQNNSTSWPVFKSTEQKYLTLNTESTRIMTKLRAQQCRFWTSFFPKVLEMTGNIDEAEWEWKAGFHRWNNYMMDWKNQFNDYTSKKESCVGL

Compound | ChE inhibition of the leaving groups ([1]; ChEs (hBChE and hAChE)) | remaining activity at 100 µM ([1]; residual activity at 100 μmol/L, after 5 min preincubation, read-out: hBChE RA±SD (residual activity)) | remaining activity at 100 µM [2] | potency compared to idazoxan 2 [3] | half-life [4] | IC50 ([1]; after 5 min preincubation, read-out: hBChE IC50±SD) | hBChE time-dependency observed: Yes/No ([1]; pre-incubation time varied) | hAChE time-dependency observed: Yes/No ([2]; pre-incubation time varied) | Ki [5] | kcarb, carbamoylation ([5]; 25 °C) | kdecarb, decarbamoylation ([5]; 25 °C) | t1/2, decarbamoylation ([5]; 25 °C) | ΔG25°C‡, carbamoylation ([5]; 25 °C) | effectiveness in MWM test [6]
CCC1(c2cnc[nH]2)Cc2ccccc2C1 [Compound 5, 4-(2-ethylindan-2-yl)-1H-imidazole, reference compound] | ineffective | 82% | 82% | approx. 100 fold | 1.7 to 2 h | – | – | – | – | – | – | – | – | –
CCN(C)C(=O)n1cnc(C2(CC)Cc3ccccc3C2)c1 [Compound 7, N-Ethyl-4-(2-ethylindan-2-yl)-N-methyl-1H-imidazole-1-carboxamide] | – | – | 52 ± 3% | – | – | 9.9 ± 0.9 nM | Yes | Yes | 73 ± 6 nM | 7.2±4.5 min^–1 | 0.92±0.14 ×10^–2 h^–1 | 75 ± 11 h | 18.7 ± 0.4 kcal/mol | less effective
